IC50 data for 17 molecules are collected here from BindingDB's records for doi:10.1002/cbic.200400135 (Max Planck Institute for Coal Research, 2004).

What all share (assay): Phosphatase Inhibition Assay
Test [1] has as its target Dual specificity protein phosphatase 3 (Homo sapiens, UniProt P51452). Conditions: pH 6.5; 37 °C.
Test [2] has as its target T1, M-phase inducer phosphatase 1 (Homo sapiens, UniProt P30304).
T1 sequence (P30304 whole entry): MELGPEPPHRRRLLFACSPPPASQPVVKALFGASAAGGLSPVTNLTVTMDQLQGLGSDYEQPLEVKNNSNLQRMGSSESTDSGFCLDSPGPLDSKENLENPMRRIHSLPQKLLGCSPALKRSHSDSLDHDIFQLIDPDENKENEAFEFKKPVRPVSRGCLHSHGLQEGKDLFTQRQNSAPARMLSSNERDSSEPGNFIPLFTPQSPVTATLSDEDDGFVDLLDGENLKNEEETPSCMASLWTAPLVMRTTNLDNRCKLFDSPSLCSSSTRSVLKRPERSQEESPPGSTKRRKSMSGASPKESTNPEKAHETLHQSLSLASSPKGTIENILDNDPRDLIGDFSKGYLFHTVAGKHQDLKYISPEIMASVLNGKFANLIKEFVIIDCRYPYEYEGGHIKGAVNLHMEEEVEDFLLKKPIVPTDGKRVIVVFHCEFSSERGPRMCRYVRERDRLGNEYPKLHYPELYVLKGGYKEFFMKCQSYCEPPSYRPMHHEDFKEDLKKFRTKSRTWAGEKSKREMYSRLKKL
Conditions: pH 8; 37 °C.

The target of test [3] is T2, Tyrosine-protein phosphatase non-receptor type 1 (Homo sapiens, UniProt P18031).
T2 sequence (P18031 whole entry): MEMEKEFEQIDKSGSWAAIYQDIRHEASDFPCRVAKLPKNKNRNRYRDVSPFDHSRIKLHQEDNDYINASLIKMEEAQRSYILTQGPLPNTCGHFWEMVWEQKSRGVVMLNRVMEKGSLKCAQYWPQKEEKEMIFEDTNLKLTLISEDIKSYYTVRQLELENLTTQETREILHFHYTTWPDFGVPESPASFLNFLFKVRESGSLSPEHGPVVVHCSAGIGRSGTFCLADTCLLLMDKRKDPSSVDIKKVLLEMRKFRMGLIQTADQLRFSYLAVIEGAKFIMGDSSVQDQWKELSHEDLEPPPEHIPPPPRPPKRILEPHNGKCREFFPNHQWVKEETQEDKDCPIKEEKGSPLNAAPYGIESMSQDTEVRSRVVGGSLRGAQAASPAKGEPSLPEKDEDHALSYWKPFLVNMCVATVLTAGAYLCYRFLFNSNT
The following applies: pH 7.2; 37 °C.

Sequence of Dual specificity protein phosphatase 3 (P51452 whole entry): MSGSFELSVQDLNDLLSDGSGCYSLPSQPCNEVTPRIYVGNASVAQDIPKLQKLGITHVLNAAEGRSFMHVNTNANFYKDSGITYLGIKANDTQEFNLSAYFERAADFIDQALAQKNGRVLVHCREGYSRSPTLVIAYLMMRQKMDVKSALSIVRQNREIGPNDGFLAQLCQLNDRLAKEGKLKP

Turning to `CC(C)[C@H]1c2cc3[nH]c2=C(c2ccc(-c4ccc[nH]4)o2)[C@@H]1CCCCCCCC=3` [Roseophilin analogue, 3], the IC50 in test [1] was 15 µM; in test [2], > 50 µM; in test [3] it was 10 µM.

Take `COc1cc(-c2[nH]ccc2Cl)oc1C1=c2[nH]c3cc2[C@H](C(C)C)[C@H]1CCCCCCCC=3`: the IC50 is 32 µM in test [1], 28 µM in test [2] and 38 µM in test [3].

On to `C=CCCCCc1ccc(/C=C2\N=C(c3ccc[nH]3)C=C2OC)[nH]1` [Acyclic analogue, 13], for which the IC50 in test [1] was 11 µM; in test [2] it was > 50 µM; in test [3] it was 11 µM.

Consider `CCc1ccc(/C=C2\NC(=O)C=C2OC)[nH]1` [Acyclic analogue, 17], for which the IC50 in test [1], in test [2] and in test [3] was > 50 µM throughout.

With `C=CCCCCc1ccc(/C=C2\NC(=O)C=C2OC)[nH]1` [Acyclic analogue, 16], the IC50 was 8 µM in test [1], > 50 µM in test [2] and 46 µM in test [3].

`C/C(=C1\C=CC=N1)c1ccc(-c2ccc[nH]2)o1`: the IC50 in test [1] was found to be 4.9 µM; in test [2], 40 µM.

On to `C=CCCCCc1ccc(C=C2N=C(c3ccc(C(=O)CCC=C)[nH]3)C=C2OC)[nH]1` [Acyclic analogue, 11], for which the IC50 in test [1] was > 50 µM; in test [2] it was > 50 µM; in test [3], 32 µM.

Take `CCc1ccc(/C=C2\N=C(c3ccc[nH]3)C=C2OC)[nH]1` [Acyclic analogue, 14]: the IC50 in test [1] is 21 µM; in test [2], > 50 µM; in test [3], 10 µM.

For `COC1=CC2=N/C1=C\c1ccc([nH]1)CCCC/C=C/CCCc1cccc2c1` [Cyclic analogue, 9], the figures for the IC50 in test [1], in test [2] and in test [3] were 30 µM, > 50 µM and > 50 µM, respectively.

Take `COC1=CC2=N/C1=C\c1ccc([nH]1)CCCC/C=C/CCCCCCCCCCC1=CC=C2O1` [Cyclic analogue, 8]: the IC50 was 41 µM in test [1], > 50 µM in test [2] and 24 µM in test [3].

On to `C=CC/C=C(/C)c1ccc(C2=N/C(=C\c3ccc(CCCCC=C)[nH]3)C(OC)=C2)[nH]1` [Acyclic analogue, 12], for which the results for the IC50 in test [1], in test [2] and in test [3] were 9 µM, > 50 µM and 12 µM, respectively.

In the case of `C/C(=C1\C=CC=N1)c1ccc(-c2[nH]ccc2Cl)o1` [3-chloro-2-(5-{1-[(2Z)-2H-pyrrol-2-ylidene]ethyl}furan-2-yl)-1H-pyrrole, 4], the IC50 worked out at 9 µM in test [1], 34 µM in test [2] and 6 µM in test [3].

With `C=CCCCCc1ccc(/C=C2\N=C(c3ccc(CCCC=C)s3)C=C2OC)[nH]1` [Acyclic analogue, 15], the IC50 is 39 µM in test [1], > 50 µM in test [2] and 28 µM in test [3].

Regarding `C=CCCCCc1ccc(/C=C2\N=C(c3ccc(CCCC=C)[nH]3)C=C2OC)[nH]1` [Acyclic analogue, 10], the IC50 in test [1], in test [2] and in test [3] was > 50 µM each time.

On to `COC1=CC2=N/C1=C\c1ccc([nH]1)CCCC/C=C/CCCC1=CC=C2O1` [Cyclic analogue, 7], for which the IC50 in test [1] is 28 µM; in test [2], > 50 µM; in test [3] it was 23 µM.

`COc1cc(-c2[nH]ccc2Cl)oc1C1=c2[nH]c3cc2[C@@H](C(C)C)[C@@H]1CCCCCCCC=3` [Roseophilin, 2]: the IC50 in test [1] is 6 µM; in test [2] it was 21 µM; in test [3], 6 µM.

`COC1=CC(=O)N/C1=C\c1ccc(CCCC/C=C/CCCCC(=O)O)[nH]1` [Acyclic analogue, 18]: the IC50 in test [1] is 21 µM; in test [2], > 50 µM; in test [3] it was 16 µM.
